“Also recorded” adds a separate entry of the source. Like-named read-outs stand apart in the source and are kept apart here.

Results on 10 compounds are retold here after patent US10155742B2, “Halofuginol derivatives and their use in cosmetic and pharmaceutical compositions” (President and Fellows of Harvard College, priority 2012, dated 2018).

Test [1] has as its system translation in rabbit reticulocyte lysate (RRL). Kind of test: In vitro translation assay in rabbit reticulocyte lysate (RRL). The settings on record: for inhibition of translation of luciferase RNA in RRL: luminescence assay, FIG. 2A/2B.
In test [2] the target is T1, ProRS (amino acids 998-1513 of human EPRS) (Homo sapiens, UniProt P07814).
T1 construct: Purified 6-his tagged ProRS (amino acids 998-1513 of human EPRS) was immobilized on N-NTA beads; made in house; host or cells: E. coli BL21(DE3), plasmid pKS509
T1 sequence (P07814 998-1512 limits assumed): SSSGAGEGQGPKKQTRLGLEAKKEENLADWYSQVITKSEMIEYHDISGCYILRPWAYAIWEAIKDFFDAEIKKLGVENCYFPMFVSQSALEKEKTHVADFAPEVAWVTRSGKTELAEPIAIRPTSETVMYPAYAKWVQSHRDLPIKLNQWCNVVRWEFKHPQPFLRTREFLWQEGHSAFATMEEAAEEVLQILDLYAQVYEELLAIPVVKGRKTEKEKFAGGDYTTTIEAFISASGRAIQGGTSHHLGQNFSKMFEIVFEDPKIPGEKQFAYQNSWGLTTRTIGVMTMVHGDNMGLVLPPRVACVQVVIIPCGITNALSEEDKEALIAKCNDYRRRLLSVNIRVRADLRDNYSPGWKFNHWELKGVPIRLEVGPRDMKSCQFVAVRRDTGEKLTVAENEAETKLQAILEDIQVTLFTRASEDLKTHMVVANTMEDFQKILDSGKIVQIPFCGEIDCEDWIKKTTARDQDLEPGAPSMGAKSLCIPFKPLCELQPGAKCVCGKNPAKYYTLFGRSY
The test is described as follows: [3H]-HFol binding to immobilized ProRS. The following applies: for inhibition of [3H]-HFol binding to ProRS: FIG. 4A. How it is done: B) [^3H]-HFol binding was assayed as described above in the presence of indicated concentrations of proline. […] IMR90 lung fibroblasts were treated with a siRNAs directed against EPRS (Dharmacon) or a control siRNA mixture for 48 hours, and then treated with HF for 2 hours (pGCN2) and examined for EPRS protein levels, GCN2 total protein and phospho-GCN2 by Western blot. D) EPRS depleted IMR90 cells were compared to control cells with respect to HF induction of the AAR marker CHOP by Q-PCR. Equal concentrations of total cellular protein were loaded in each Western blot lane. CHOP expression was standardized to expression of phosphoglycerate kinase 1 (PGK1) and glyceraldehyde-3-phosphate-dehydrogenase (GAPDH). Data shown are representative of three separate experiments.
Prolyl sulfamoyl adenosine (ProSAd) or alanyl sulfamoyl adenosine (AlaSAd), analogs of the corresponding aminoacyl adenylate, were coincubated with [^3H]-HFol as in FIG. 2. […] Binding of [^3H]-HFol was assayed as in FIG. 3, except that the nucleotide type and concentration was varied as indicated.
To examine HF binding to ProRS, ^3H HFol was synthesized by American Radiochemicals (St. Louis) by reduction of MAZ1310 (3) at the ketone with NaB^3H4, followed by removal of the Boc protecting group with 10% trifluoroacetic acid in dichloromethane, and HPLC purification of the ^3H HFol. 100 nM ^3H HFol was incubated with ProRS immobilized on Ni-NTA beads (Pierce) in 50 mM Tris pH 7.5, 5 mM MgCl2, 20 mM Imidazole, 1 mM DTT, 10% glycerol, and nucleotides, proline, or HF derivatives at room temperature for 10 minutes as indicated. After incubation, beads were washed twice with ice-cold wash buffer (50 mM Tris 7.5; 20 mM Imidazole; 1 mM DTT, 20% glycerol). ^3H HFol bound after washing was measured by liquid scintillation counting. Ni-NTA beads incubated with E. coli extracts lacking tagged ProRS were used as a background reference in all experiments.

The next test has as its system P. falciparum (Dd2). The test is described as follows: In vitro P. falciparum viability assay with excess proline. Format: cell-based, Plasmodium falciparum. The settings on record: Dd2 strain in red blood cells, relative to unmodified RPMI, FIG. 23. As to the method: The activity of halofuginone and amodiaquine as inhibitors of P. falciparum growth was tested in erythrocytes in RPMI with or without excess amino acids as indicated, and IC50 values were normalized to IC50 values obtained under standard conditions using unmodified RPMI (numbers in bold). The absolute IC50 values for halofuginone and amodiaquine for RPMI are reported in parentheses. Fold amino acid indicated (e.g., “5×”) is relative to the concentration of the respective amino acid in RPMI. Fold concentration of D-Pro and L-Orn are relative to L-Pro.
In vitro potency against P. falciparum (DD2) was assessed using a modified version of the method of Plouffe and coworkers (Plouffe et al. Proc. Natl. Acad. Sci. USA 105:9059-64 (2008)). Parasites were cultured in the presence of drug in RPMI (Sigma) containing 4.16 mg/ml Albumax in a total volume of 50 μl at a 2.5% hematocrit and an initial parasitemia of 0.3% in black Greiner GNF clear-bottom plates. Cultures were incubated 72 hr at 37° C. under […], 4% CO2 and 3% O2. At the end of the incubation, SYBR green was added to a dilution of 1:10,000 and plates were stored overnight (or until ready to be read) at −80° C. Just before reading, plates were centrifuged at 700 rpm and fluorescence was read using 480 nm excitation and 530 nm emission frequencies. Compound concentrations that inhibit parasite replication reduce the fluorescence intensity of SYBR green bound to parasite DNA.

In test [3] the target is T2, prolyl tRNA synthetase domain of human EPRS (ProRS) (Homo sapiens, UniProt P07814).
T2 sequence (P07814 998-1512 limits assumed): T1 sequence (P07814 998-1512 limits assumed)
Experimental: Activity of the Prolyl tRNA synthetase domain of EPRS (ProRS) was measured as ^3H Pro incorporation into the charged tRNA pool. […] Purified enzyme was visualized as a single band by Laemmli gel electrophoresis/Coomassie staining.
Purified enzyme was visualized as a single band by Laemmli gel electrophoresis/Coomassie staining. […] In preliminary experiments, the assay was established to be linear over the time (6 min) and conditions used (30 degrees, 2 mM ATP, 1 μg/μl total tRNA purified from rabbit liver).
For the rapid, quantitative isolation of aminoacylated tRNA^pro from synthetase reaction mixtures, reactions were stopped with 100 μl of ice cold 20 mM MOPS pH6.2, 200 mM NaCl, 10 mM EDTA, 30% Glycerol and placed on ice. Samples were added to 15 μl of packed Mono Q HP beads (GE Healthcare) equilibrated in the same buffer. Samples were incubated with beads on ice for 10 min, beads were pelleted by 5 sec centrifugation in a tabletop microfuge and washed 3× 1 ml of wash buffer (20 mM MOPS pH6.2, 50 mM NaCl), and recovered pellets counted in a liquid scintillation counter. Background binding of ^3H Pro to beads (using reaction mix with either no enzyme added or no tRNA added) was negligible (20-40 cpm).

Test [4] has as its system primary human prostate stromal (hPrSc) cells, col1a1. The test is described as follows: Type I collagen (col1a1) mRNA in primary human prostate stromal cells. In kind it is cell-based. The settings on record: treated twice for 48 hours, FIG. 27. As to the method: Primary human prostate stromal (hPrSc) cells were left in low-serum media (0.2%) for 24 hours, and treated consecutively twice for 48 hours, halofuginone (HF) or halofuginol (HFol) at the concentrations indicated. Relative mRNA levels of the myofibroblastic markeralpha 1 collagen type 1 (col1a1) was measured by quantitative real-time PCR using glyceraldehyde-3-phosphate dehydrogenase (GAPDH) as internal control.

For test [5], the system named is primary human prostate stromal (hPrSc) cells, s100a4. The test is described as follows: S100A4 mRNA in primary human prostate stromal cells. Format: cell-based. The settings on record: with or without TGF 10 ng/ml, FIG. 28. As to the method:
Primary human prostate stromal (hPrSc) cells were left in low-serum media (0.2%) for 24 hours, and treated consecutively twice for 48 hours with or without tumor-growth factor beta (TGF; 10 ng/ml), halofuginone (HF) or halofuginol (HFol) at the concentrations indicated. Relative mRNA levels of the fibrosis/tissue invasion marker s100a4 was measured by quantitative real-time PCR using glyceraldehyde-3-phosphate dehydrogenase (GAPDH) as internal control.

Test [6] deals with Th17 cell differentiation (primary murine CD4+ CD25- T cells). The test is described as follows: Th17 differentiation of T cells. In kind it is cell-based, mouse. The following applies: 6 nM (3 ng/mL) borrelidin, FIG. 19. As to the method:
A) Primary murine CD4^+ CD25^− T cells were activated through the T-cell receptor in Th17 polarizing conditions (Sundrud et al. Science 324:1334-8 (2009)) in the presence of either 10 nM MAZ1310 or HF and the following amino acid supplements: 10× concentration of essential (EAA) or non-essential (NEAA) amino acids mixtures (Biowhittaker or Invitrogen, respectively), or 10× concentrations (1 mM) of indicated individual amino acids. Data are presented as mean percentage of Th17 (IL-17+ IFNg−) cells +/−SD from triplicate wells. B) Th17 differentiation was assayed as described above, in the absence or presence of HF or borrelidin, with or without 1 mM threonine or proline supplementation. C) MEFs were treated with or without HF (50 nM) and/or proline (2 mM) for 4 hours (CHOP, S100A4) or 24 hours (ColIA1, Col1A2). mRNA expression was normalized to expression of TBP and is shown relative to untreated control. […] Confidence intervals (p-value) for the effect of HF alone versus HF+Pro were determined using a two-tailed Student's t test. […] D) Cells were pre-incubated for 24 hours with HF and proline as indicated, and secretion of Type I procollagen was measured after 24 hours in conditioned medium of cells plated by Western blot and quantitated using Image J software (top panel). Total protein synthesis was measured as TCA-precipitable ^35S in a scintillation counter (bottom panel). […]

Setting [7] is: inhibitor 1 μM, anti-myc Western blot, FIG. 2C.

For `O=C(C[C@@H]1NCCC[C@H]1O)Cn1cnc2cc(Br)c(Cl)cc2c1=O` (single isomer, unassigned) [2S,3R isomer of HF], in test [1], the “inhibition of translation of luciferase RNA in RRL” value (“inhibition of translation … in RRL” for short) was “no activity”.

For `C[C@H](N)C(=O)NS(=O)(=O)OC[C@H]1O[C@@H](n2cnc3c(N)ncnc32)[C@H](O)[C@@H]1O` [AlaSAd, alanyl sulfamoyl adenosine], the “inhibition of [3H]-HFol binding to ProRS” value in test [2] (50 nM competitor) is “partially inhibited”.

As to `O=C(C[C@H]1NCCC[C@@H]1O)Cn1cnc2ccccc2c1=O` [FF, febrifugine], in test [1] (setting [7]), the “translation of Nopropep (proline-free polypeptide)” value is given as “no effect” and the “translation of Propep (proline dipeptide containing polypeptide)” value is given as “prevent translation”. The “inhibition of translation … in RRL” value in test [1] was “inhibited”. For the same compound, the “fold increase of effective IC50 on addition of 5× proline” value with P. falciparum (Dd2) is approximately 5 fold.

Turning to `O=c1c2cc(Cl)c(Br)cc2ncn1C[C@@H](O)C[C@H]1NCCC[C@@H]1O` [HFolA, halofuginol], in test [3] (3H Pro incorporation into tRNA), the “inhibition of ProRS activity” value is recorded as “active; also recorded: inhibits; also recorded: potent inhibitor”.

For `O=c1c2cc(Cl)c(Br)cc2ncn1C[C@H](O)C[C@H]1NCCC[C@@H]1O` [HFolA, halofuginol], the “Type 1 collagen expression in fibroblasts in culture” value in test [4] is “inhibit”. Further, the “inhibition of ProRS (EPRS) activity” value in test [3] (100 μM Pro, FIG. 13) is “inhibits; also recorded: potency similar to the parent compound”. Moreover, the “expression of the activated fibroblast marker S100A4” value in test [5] was “inhibit”.

As for `CC(C)(C)OC(=O)N1CCC[C@H](O)[C@H]1CC(=O)Cn1cnc2cc(Br)c(Cl)cc2c1=O` [MAZ1310], the “inhibition of translation … in RRL” value in test [1] is listed as “no activity”. The “inhibition of ProRS activity” value in test [3] (14C Proline used as trace label, FIG. 9) is listed as “does not block; also recorded: no inhibitory effect”.

Regarding `Nc1ncnc2c1ncn2[C@@H]1O[C@H](COS(=O)(=O)NC(=O)[C@@H]2CCCN2)[C@@H](O)[C@H]1O` [ProSAd, 5-O—[N-(L-prolyl)-sulfamoyl]adenosine], the “inhibition of [3H]-HFol binding to ProRS” value in test [2] (10 nM competitor) is on record as “inhibited”.

With `[3H][C@@](O)(C[C@H]1NCCC[C@@H]1O)Cn1cnc2cc(Br)c(Cl)cc2c1=O` [[^3H]-HFol], the “direct binding to immobilized ProRS” value in test [2] (5 mM MgCl2, 2 mM ATP, 10 min RT) is listed as “bound directly”.

In the case of `CCN(CC)Cc1cc(Nc2ccnc3cc(Cl)ccc23)ccc1O` [amodiaquine], the “fold increase of effective IC50 on addition of 5× proline” value in the test with P. falciparum (Dd2) is “did not affect”.

On to `C[C@@H]1C[C@H](C)C[C@H](C)[C@@H](O)CC(=O)O[C@H]([C@@H]2CCC[C@H]2C(=O)O)C/C=C/C=C(/C#N)[C@H](O)[C@@H](C)C1` [borrelidin], for which the “inhibition of Th17 cell differentiation” value is given as “selectively inhibits” in test [6] and “inhibited” in test [6] (listed as Borrelidin).
